Experimental data as given in patent US10654884B2 (Vitae Pharmaceuticals, Inc., priority 2014, dated 2020).

Assays:
human CD73 = target: T1, human CD73 (Homo sapiens, UniProt P21589); assay: Inhibition of 5′-Nucleotidase Activity of CD73 (Assay 1); format: biochemical; conditions: human CD73 4 ng/ml, 50 μM CMP, 20 min at RT, malachite green readout; read-out: Assay 1: IC50, inhibition of 5′-nucleotidase activity of CD73
T1 construct: purchased R&D Systems 5795-EN-010
T1 sequence (P21589 27-549): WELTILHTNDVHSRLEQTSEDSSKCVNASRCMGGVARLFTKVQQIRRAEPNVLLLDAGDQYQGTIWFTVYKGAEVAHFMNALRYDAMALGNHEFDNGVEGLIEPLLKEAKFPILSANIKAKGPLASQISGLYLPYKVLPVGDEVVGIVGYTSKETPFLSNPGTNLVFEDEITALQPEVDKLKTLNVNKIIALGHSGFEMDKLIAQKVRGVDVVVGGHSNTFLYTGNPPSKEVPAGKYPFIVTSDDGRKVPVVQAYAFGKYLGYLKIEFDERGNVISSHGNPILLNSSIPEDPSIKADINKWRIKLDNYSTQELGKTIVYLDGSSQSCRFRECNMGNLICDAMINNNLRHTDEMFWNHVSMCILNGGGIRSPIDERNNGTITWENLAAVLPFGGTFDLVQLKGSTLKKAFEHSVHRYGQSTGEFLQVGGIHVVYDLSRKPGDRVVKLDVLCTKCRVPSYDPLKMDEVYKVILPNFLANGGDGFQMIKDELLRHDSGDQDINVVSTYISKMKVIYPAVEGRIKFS
How it was run: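 Human CD73 (4 ng/ml final) was incubated with 50 μM CMP in 25 mM Tris-HCl pH 7.4, 0.005% Brij-35 for 20 min at RT. Reactions were stopped with malachite green reagent and absorbance was read at 620 nm. IC50 came from a 4-parameter logistic fit.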

[1] = target: T2, CD73 on U138 neuroglioma cells (Homo sapiens, UniProt P21589); assay: Inhibition of Ecto-5′-Nucleotidase Activity in U138 Neuroglioma Cells (Assay 2); format: cell-based; conditions: 50 μM CMP, 2 hr at 37° C., malachite green readout, read-out: Assay 2: IC50, inhibition of ecto-5′-nucleotidase activity in U138 neuroglioma cells
T2 construct: U138 neuroglioma cells, which express CD73 on their surface; endogenous in cells; host or cells: U138 neuroglioma cells (ATCC)
T2 sequence (P21589 27-549): T1 sequence (P21589 27-549)
How it was run: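 Whole-cell CD73 activity in U138 human neuroglioma cells seeded the day before, washed free of phosphate, then given test compound dilutions with 50 μM CMP in HEPES-buffered saline, pH 7.4, DMSO ≤0.1%. Incubated 2 hr at 37° C; released inorganic phosphate in supernatant measured by malachite green; IC50 by nonlinear regression.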

| Compound | IC50 (human CD73) [µM] | IC50 [1] [µM] |
| --- | --- | --- |
| COc1nc(OC)c2ncn([C@@H]3O[C@H](COC(C(=O)OC(C)(C)C)P(=O)(O)O)[C@@H](O)[C@H]3O)c2n1 (stereo partly drawn) [Example 33, (2-(tert-butoxy)-1-(((2R,3S,4R,5R)-5-(2,6-dimethoxy-9H-purin-9-yl)-3,4-dihydroxytetrahydrofuran-2-yl)methoxy)-2-oxoethyl)phosphonic Acid] | 0.1 to 1 | 0.1 to 1 |
| Cc1nc(C)c2ncn([C@@H]3O[C@H](COC(C(=O)O)P(=O)(O)O)[C@@H](O)[C@H]3O)c2n1 (stereo partly drawn) [Example 38, 2-(((2R,3S,4R,5R)-5-(2,6-dimethyl-9H-purin-9-yl)-3,4-dihydroxytetrahydrofuran-2-yl)methoxy)-2-phosphonoacetic acid] | 0.1 to 1 | > 1 |
| CCOC(=O)C(OC[C@H]1O[C@@H](n2cnc3c(N)nc(SC)nc32)[C@H](O)[C@@H]1O)P(=O)(O)O (stereo partly drawn) [Example 43, (1-(((2R,3S,4R,5R)-5-(6-amino-2-(methylthio)-9H-purin-9-yl)-3,4-dihydroxytetrahydrofuran-2-yl)methoxy)-2-ethoxy-2-oxoethyl)phosphonic Acid] | 0.1 to 1 | > 1 |
| Nc1nc(Cl)nc2c1ncn2[C@@H]1O[C@H](COC(Cc2ccc(Cl)cc2)(C(=O)O)C(=O)O)[C@@H](O)[C@H]1O [Example 47, 2-(((2R,3S,4R,5R)-5-(6-amino-2-chloro-9H-purin-9-yl)-3,4-dihydroxytetrahydrofuran-2-yl)methoxy)-2-(4-chlorobenzyl)malonic acid] | < 0.1 | < 0.1 |
| N#Cc1ccc(CC(OC[C@H]2O[C@@H](n3cnc4c(N)nc(Cl)nc43)[C@H](O)[C@@H]2O)(C(=O)O)C(=O)O)cc1 [Example 48, 2-(((2R,3S,4R,5R)-5-(6-amino-2-chloro-9H-purin-9-yl)-3,4-dihydroxytetrahydrofuran-2-yl)methoxy)-2-(4-cyanobenzyl)malonic acid] | < 0.1 | < 0.1 |
| Nc1nc(F)nc2c1ncn2[C@@H]1O[C@H](CO[C@@H](C(=O)O)P(=O)(O)O)[C@@H](O)[C@H]1O [Example 53, (R)-2-(((2R,3S,4R,5R)-5-(6-amino-2-fluoro-9H-purin-9-yl)-3,4-dihydroxytetrahydrofuran-2-yl)methoxy)-2-phosphonoacetic Acid] | < 0.1 | 0.1 to 1 |
| CC(C)(C)OC(=O)[C@H](OC[C@H]1O[C@@H](n2cnc3c(N)nc(C#N)nc32)[C@H](O)[C@@H]1O)P(=O)(O)O [Example 54a, ((R)-1-(((2R,3S,4R,5R)-5-(6-amino-2-cyano-9H-purin-9-yl)-3,4-dihydroxytetrahydrofuran-2-yl)methoxy)-2-(tert-butoxy)-2-oxoethyl)phosphonic Acid] | 0.1 to 1 | > 1 |
| O=C(Nc1nc(I)nc2c1ncn2[C@@H]1O[C@H](COC(C(=O)O)P(=O)(O)O)[C@@H](O)[C@H]1O)c1ccccc1 (stereo partly drawn) [Example 58, 2-(((2R,3S,4R,5R)-5-(6-benzamido-2-iodo-9H-purin-9-yl)-3,4-dihydroxytetrahydrofuran-2-yl)methoxy)-2-phosphonoacetic acid] | < 0.1 | 0.1 to 1 |
| Nc1nc(I)nc2c1ncn2[C@@H]1O[C@H](CO[C@H](C(=O)O)P(=O)(O)O)[C@@H](O)[C@H]1O [Example 59, (S)-2-(((2R,3S,4R,5R)-5-(6-amino-2-iodo-9H-purin-9-yl)-3,4-dihydroxytetrahydrofuran-2-yl)methoxy)-2-phosphonoacetic Acid] | < 0.1 | 0.1 to 1 |
| O=C(O)C(OC[C@H]1O[C@@H](n2cnc3c(Cl)nc(Cl)nc32)[C@H](O)[C@@H]1O)P(=O)(O)O (stereo partly drawn) [Example 62, 2-(((2R,3S,4R,5R)-5-(2,6-dichloro-9H-purin-9-yl)-3,4-dihydroxytetrahydrofuran-2-yl)methoxy)-2-phosphonoacetic acid] | < 0.1 | 0.1 to 1 |
| CCOc1nc(Cl)nc2c1ncn2[C@@H]1O[C@H](COC(C(=O)O)P(=O)(O)O)[C@@H](O)[C@H]1O (stereo partly drawn) [Example 63, 2-(((2R,3S,4R,5R)-5-(2-chloro-6-ethoxy-9H-purin-9-yl)-3,4-dihydroxytetrahydrofuran-2-yl)methoxy)-2-phosphonoacetic acid] | < 0.1 | 0.1 to 1 |
| O=C(O)C(OC[C@H]1O[C@@H](n2cnc3c(Nc4ccccc4)ncnc32)[C@H](O)[C@@H]1O)P(=O)(O)O (stereo partly drawn) [Example 65, 2-(((2R,3S,4R,5R)-3,4-dihydroxy-5-(6-(phenylamino)-9H-purin-9-yl)tetrahydrofuran-2-yl)methoxy)-2-phosphonoacetic acid] | 0.1 to 1 | 0.1 to 1 |
| O=C(O)C(OC[C@H]1O[C@@H](n2cnc3c(N4CCC(O)CC4)ncnc32)[C@H](O)[C@@H]1O)P(=O)(O)O (stereo partly drawn) [Example 66, 2-(((2R,3S,4R,5R)-3,4-dihydroxy-5-(6-(4-hydroxypiperidin-1-yl)-9H-purin-9-yl)tetrahydrofuran-2-yl)methoxy)-2-phosphonoacetic acid] | 0.1 to 1 | > 1 |
| CNc1ncnc2c1ncn2[C@@H]1O[C@H](COC(C(=O)O)P(=O)(O)O)[C@@H](O)[C@H]1O (stereo partly drawn) [Example 67, 2-(((2R,3S,4R,5R)-3,4-dihydroxy-5-(6-(methylamino)-9H-purin-9-yl)tetrahydrofuran-2-yl)methoxy)-2-phosphonoacetic acid] | 0.1 to 1 | > 1 |
| O=C(O)C(OC[C@H]1O[C@@H](n2cnc3c(N[C@@H]4CCOC4)nc(Cl)nc32)[C@H](O)[C@@H]1O)C(=O)O [Example 68, 2-(((2R,3S,4R,5R)-5-(2-chloro-6-(((R)-tetrahydrofuran-3-yl)amino)-9H-purin-9-yl)-3,4-dihydroxytetrahydrofuran-2-yl)methoxy)malonic acid] | < 0.1 | 0.1 to 1 |
| O=C(O)C(OC[C@H]1O[C@@H](n2cnc3c(N[C@@H]4CCOC4)nc(Cl)nc32)[C@H](O)[C@@H]1O)C(=O)O [Example 69, (R)-2-(((2R,3S,4R,5R)-5-(2-chloro-6-(((R)-tetrahydrofuran-3-yl)amino)-9H-purin-9-yl)-3,4-dihydroxytetrahydrofuran-2-yl)methoxy)malonic Acid] | 0.1 to 1 | > 1 |
| CCOC(=O)[C@H](OC[C@H]1C[C@@H](n2cnc3cccc(C#N)c3c2=O)[C@H](O)[C@@H]1O)P(=O)(O)O [Example 73, ((R)-1-(((1R,2R,3S,4R)-4-(5-cyano-4-oxoquinazolin-3(4H)-yl)-2,3-dihydroxycyclopentyl)methoxy)-2-ethoxy-2-oxoethyl)phosphonic Acid] | < 0.1 | 0.1 to 1 |

Now from value to compound:

| IC50 (human CD73) [µM] | IC50 [1] [µM] | Compound |
| --- | --- | --- |
| 0.1 to 1 | 0.1 to 1 | CCNc1nc(Cl)nc2c1ncn2[C@@H]1O[C@H](CO[C@](C)(C(=O)OCC)P(=O)(O)O)[C@@H](O)[C@H]1O [Example 29a, ((S)-2-(((2R,3S,4R,5R)-5-(2-chloro-6-(ethylamino)-9H-purin-9-yl)-3,4-dihydroxytetrahydrofuran-2-yl)methoxy)-1-ethoxy-1-oxopropan-2-yl)phosphonic Acid] |
| 0.1 to 1 | > 1 | COc1nc(OC)c2ncn([C@@H]3O[C@H](COC(C(=O)O)P(=O)(O)O)[C@@H](O)[C@H]3O)c2n1 (stereo partly drawn) [Example 33a, 2-(((2R,3S,4R,5R)-5-(2,6-dimethoxy-9H-purin-9-yl)-3,4-dihydroxytetrahydrofuran-2-yl)methoxy)-2-phosphonoacetic acid] |
| > 1 | > 1 | Nc1nc(F)nc2c1ncn2[C@@H]1O[C@H](CO[C@H](C(=O)O)P(=O)(O)O)[C@@H](O)[C@H]1O [Example 53a, (S)-2-(((2R,3S,4R,5R)-5-(6-amino-2-fluoro-9H-purin-9-yl)-3,4-dihydroxytetrahydrofuran-2-yl)methoxy)-2-phosphonoacetic acid] |
| < 0.1 | 0.1 to 1 | Nc1nc(I)nc2c1ncn2[C@@H]1O[C@H](CO[C@@H](C(=O)O)P(=O)(O)O)[C@@H](O)[C@H]1O [Example 59a, (R)-2-(((2R,3S,4R,5R)-5-(6-amino-2-iodo-9H-purin-9-yl)-3,4-dihydroxytetrahydrofuran-2-yl)methoxy)-2-phosphonoacetic Acid] |
| < 0.1 | 0.1 to 1 | O=C(O)C(OC[C@H]1O[C@@H](n2cnc3c(NO)nc(I)nc32)[C@H](O)[C@@H]1O)P(=O)(O)O (stereo partly drawn) [Example 59b, 2-(((2R,3S,4R,5R)-3,4-dihydroxy-5-(6-(hydroxyamino)-2-iodo-9H-purin-9-yl)tetrahydrofuran-2-yl)methoxy)-2-phosphonoacetic acid] |
